Test results as given in patent publication US20230279025A1, “KRAS G12D INHIBITORS” (Mirati Therapeutics, Inc., priority 2020, published 2023).
Structures can show the parent of a compound that is named as a salt.

Molecular target: KRas G12D (Homo sapiens (Human), UniProt P01116, G12D)
Test: KRas G12D Binding Assay (TR-FRET displacement of Cy5 labelled tracer)
Conditions: GDP-loaded KRAS G12D (amino acids 1:169), 60 minute incubation at 22° C.
Method: After a 60 minute incubation at 22° C., the reaction was measured using a PerkinElmer EnVision multimode plate reader via TR-FRET dual wavelength detection, and the percent of control (POC) calculated using a ratiometric emission factor. […] The POC values were fit to a 4-parameter logistic curve and the IC50 value was determined as the concentration where the curve crosses 50 POC.
ND stands for “not determined.”

KRas G12D, sequence (P01116 other isoform, or with tags, fused parts or gaps G12D): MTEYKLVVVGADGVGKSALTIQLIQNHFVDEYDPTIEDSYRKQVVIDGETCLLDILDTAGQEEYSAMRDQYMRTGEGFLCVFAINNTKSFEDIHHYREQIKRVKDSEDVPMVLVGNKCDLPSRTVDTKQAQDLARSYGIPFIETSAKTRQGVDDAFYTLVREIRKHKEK

SMILES | IC50 [nM]
CCc1cccc2cncc(-c3ncc4c(N5CC6CCC(C5)N6)nc(OCC56CCCN5C[C@H](F)C6)nc4c3F)c12 (mixture of isomers) [Example 324, 4-((1R,5S)-3,8-diazabicyclo[3.2.1]octan-3-yl)-7-(5-ethylisoquinolin-4-yl)-8-fluoro-2-((2-fluorotetrahydro-1H-pyrrolizin-7a(5H)-yl)methoxy)pyrido[4,3-d]pyrimidine (racemic, trans)] | 10.2
CO[C@H]1C[C@@H](COc2nc(N3C[C@H]4CC[C@@H](C3)N4)c3cnc(-c4cccc5cccc(Cl)c45)c(F)c3n2)N(C)C1 [Example 149, 4-((1R,5S)-3,8-diazabicyclo[3.2.1]octan-3-yl)-7-(8-chloronaphthalen-1-yl)-8-fluoro-2-(((2S,4S)-4-methoxy-1-methylpyrrolidin-2-yl)methoxy)pyrido[4,3-d]pyrimidine] | 870
Fc1c(-c2c(Cl)ccc3ccccc23)ncc2c(N3C[C@H]4CC[C@@H](C3)N4)nc(OCC34CCCN3CCC4)nc12 [Example 349, 4-((1R,5S)-3,8-diazabicyclo[3.2.1]octan-3-yl)-7-(2-chloronaphthalen-1-yl)-8-fluoro-2-((tetrahydro-1H-pyrrolizin-7a(5H)-yl)methoxy)pyrido[4,3-d]pyrimidine] | 561
COc1c(C)cccc1-c1ncc2c(N3C[C@H]4CC[C@@H](C3)N4)nc(OCC34CCCN3CCC4)nc2c1F [Example 313, 4-((1R,5S)-3,8-diazabicyclo[3.2.1]octan-3-yl)-8-fluoro-2-((hexahydro-1H-pyrrolizin-7a-yl)methoxy)-7-(2-methoxy-3-methylphenyl)pyrido[4,3-d]pyrimidine] | 231
C#CCc1ccc(O)cc1-c1ncc2c(N3C[C@H]4CC[C@@H](C3)N4)nc(OCC34CCCN3CCC4)nc2c1F [Example 279, 3-(4-((1R,5S)-3,8-diazabicyclo[3.2.1]octan-3-yl)-8-fluoro-2-((hexahydro-1H-pyrrolizin-7a-yl)methoxy)pyrido[4,3-d]pyrimidin-7-yl)-4-(prop-2-yn-1-yl)phenol] | 1.6
CC(C)c1ncccc1-c1ncc2c(N3C[C@H]4CC[C@@H](C3)N4)nc(OC[C@@]34CCCN3C[C@H](F)C4)nc2c1F [Example 421, 4-((1R,5S)-3,8-diazabicyclo[3.2.1]octan-3-yl)-8-fluoro-2-(((2R,7aS)-2-fluorohexahydro-1H-pyrrolizin-7a-yl)methoxy)-7-(2-isopropylpyridin-3-yl)pyrido[4,3-d]pyrimidine] | 7750
FCCCc1cccc2cccc(-c3ncc4c(N5C[C@H]6CC[C@@H](C5)N6)nc(OCC56CCCN5CCC6)nc4c3F)c12 [Example 255, 4-((1R,5S)-3,8-diazabicyclo[3.2.1]octan-3-yl)-8-fluoro-7-(8-(3-fluoropropyl)naphthalen-1-yl)-2-((hexahydro-1H-pyrrolizin-7a-yl)methoxy)pyrido[4,3-d]pyrimidine] | 8.7
Cc1cccc(-c2ncc3c(N4C[C@H]5CC[C@@H](C4)N5)nc(OCC45CCCN4CCC5)nc3c2F)c1Cl [Example 276, 4-((1R,5S)-3,8-diazabicyclo[3.2.1]octan-3-yl)-7-(2-chloro-3-methylphenyl)-8-fluoro-2-((hexahydro-1H-pyrrolizin-7a-yl)methoxy)pyrido[4,3-d]pyrimidine] | 16.2
Oc1cc(-c2ncc3c(N4C[C@H]5CC[C@@H](C4)N5)ncnc3c2F)c2ccccc2c1 [Example 181, 4-(4-((1R,5S)-3,8-diazabicyclo[3.2.1]octan-3-yl)-8-fluoropyrido[4,3-d]pyrimidin-7-yl)naphthalen-2-ol] | 572
CCNc1c(F)cccc1-c1ncc2c(N3C[C@H]4CC[C@@H](C3)N4)nc(OCC34CCCN3CCC4)nc2c1F [Example 269, 2-(4-((1R,5S)-3,8-diazabicyclo[3.2.1]octan-3-yl)-8-fluoro-2-((hexahydro-1H-pyrrolizin-7a-yl)methoxy)pyrido[4,3-d]pyrimidin-7-yl)-N-ethyl-6-fluoroaniline] | 4040
OCCc1cccc2cccc(-c3ncc4c(N5C[C@H]6CC[C@@H](C5)N6)nc(OCC56CCCN5CCC6)nc4c3F)c12 [Example 239, 2-(8-(4-((1R,5S)-3,8-diazabicyclo[3.2.1]octan-3-yl)-8-fluoro-2-((tetrahydro-1H-pyrrolizin-7a(5H)-yl)methoxy)pyrido[4,3-d]pyrimidin-7-yl)naphthalen-1-yl)ethan-1-ol] | 2
COc1nc(N2C[C@H]3CC[C@@H](C2)N3)c2cnc(-c3cc(O)cc4cccc(Cl)c34)c(F)c2n1 [Example 360, 4-(4-((1R,5S)-3,8-diazabicyclo[3.2.1]octan-3-yl)-8-fluoro-2-methoxypyrido[4,3-d]pyrimidin-7-yl)-5-chloronaphthalen-2-ol] | 50.8
CCC(C)c1ccccc1-c1ncc2c(N3C[C@H]4CC[C@@H](C3)N4)nc(OCC34CCCN3CCC4)nc2c1F (stereo partly drawn) [Example 300, 4-((1R,5S)-3,8-diazabicyclo[3.2.1]octan-3-yl)-7-(2-(sec-butyl)phenyl)-8-fluoro-2-((hexahydro-1H-pyrrolizin-7a-yl)methoxy)pyrido[4,3-d]pyrimidine] | 768
Fc1c(-c2cccc3cccc(C(F)(F)F)c23)ncc2c(N3C[C@H]4CC[C@@H](C3)N4)nc(OC[C@@]34CCCN3C[C@H](F)C4)nc12 [Example 419, 4-((1R,5S)-3,8-diazabicyclo[3.2.1]octan-3-yl)-8-fluoro-2-(((2R,7aS)-2-fluorotetrahydro-1H-pyrrolizin-7a(5H)-yl)methoxy)-7-(8-(trifluoromethyl)naphthalen-1-yl)pyrido[4,3-d]pyrimidine] | 50.9
Fc1ccc2cccc(-c3ncc4c(N5C[C@H]6CC[C@@H](C5)N6)nc(OCC56CCCN5CCC6)nc4c3F)c2c1Cl [Example 98, 4-((1R,5S)-3,8-diazabicyclo[3.2.1]octan-3-yl)-7-(8-chloro-7-fluoronaphthalen-1-yl)-8-fluoro-2-((tetrahydro-1H-pyrrolizin-7a(5H)-yl)methoxy)pyrido[4,3-d]pyrimidine bis(2,2,2-trifluoroacetate)] | 1
COCCNC(=O)O[C@@H]1C[C@@H](COc2nc(N3C[C@H]4CC[C@@H](C3)N4)c3cnc(-c4cccc5cccc(Cl)c45)c(F)c3n2)N(C)C1 [Example 280, (3R,5S)-5-(((4-((1R,5S)-3,8-diazabicyclo[3.2.1]octan-3-yl)-7-(8-chloronaphthalen-1-yl)-8-fluoropyrido[4,3-d]pyrimidin-2-yl)oxy)methyl)-1-methylpyrrolidin-3-yl (2-methoxyethyl)carbamate] | 99.8
Oc1cccc(-c2ncc3c(N4C[C@H]5CC[C@@H](C4)N5)nc(OCC45CCCN4CCC5)nc3c2F)c1 [Example 271, 3-(4-((1R,5S)-3,8-diazabicyclo[3.2.1]octan-3-yl)-8-fluoro-2-((hexahydro-1H-pyrrolizin-7a-yl)methoxy)pyrido[4,3-d]pyrimidin-7-yl)phenol] | 1620
Cc1cc2[nH]ncc2c(-c2ncc3c(N4C[C@H]5CC[C@@H](C4)N5)nc(OCC45CCCN4CCC5)nc3c2F)c1C [Example 249, 4-((1R,5S)-3,8-diazabicyclo[3.2.1]octan-3-yl)-7-(5,6-dimethyl-1H-indazol-4-yl)-8-fluoro-2-((hexahydro-1H-pyrrolizin-7a-yl)methoxy)pyrido[4,3-d]pyrimidine] | 3.5
CCc1cccc2cc(O)cc(-c3ncc4c(N5C[C@H]6CC[C@@H](C5)N6)ncnc4c3F)c12 [Example 449, 4-(4-((1R,5S)-3,8-diazabicyclo[3.2.1]octan-3-yl)-8-fluoropyrido[4,3-d]pyrimidin-7-yl)-5-ethylnaphthalen-2-ol] | 71
Fc1c(-c2cccc3cccc(Cl)c23)ncc2c(N3CC4CCC(C3)N4)nc(OC[C@]34CCCN3C[C@H](c3ccccc3)C4)nc12 (stereo in doubt) [Example 221, 4-((1R,5S)-3,8-diazabicyclo[3.2.1]octan-3-yl)-7-(8-chloronaphthalen-1-yl)-8-fluoro-2-((2-phenyltetrahydro-1H-pyrrolizin-7a(5H)-yl)methoxy)pyrido[4,3-d]pyrimidine bis-hydrochloride salt] | 15.7
Fc1c(-c2cccc3cccc(Br)c23)ncc2c(N3C[C@H]4CC[C@@H](C3)N4)nc(OCC34CCCN3CCC4)nc12 [Example 235, 4-((1R,5S)-3,8-diazabicyclo[3.2.1]octan-3-yl)-7-(8-bromonaphthalen-1-yl)-8-fluoro-2-((tetrahydro-1H-pyrrolizin-7a(5H)-yl)methoxy)pyrido[4,3-d]pyrimidine] | 1.2
Fc1c(-c2cccc3cccc(F)c23)ncc2c(N3C[C@H]4CC[C@@H](C3)N4)nc(OCC34CCCN3CCC4)nc12 [Example 234, 4-((1R,5S)-3,8-diazabicyclo[3.2.1]octan-3-yl)-8-fluoro-7-(8-fluoronaphthalen-1-yl)-2-((tetrahydro-1H-pyrrolizin-7a(5H)-yl)methoxy)pyrido[4,3-d]pyrimidine] | 5.9
Cc1ccc2[nH]ncc2c1-c1ncc2c(N3CC4CCC(C3)N4)nc(OCC34CCCN3C[C@H](F)C4)nc2c1F (mixture of isomers) [Example 331, 4-((1R,5S)-3,8-diazabicyclo[3.2.1]octan-3-yl)-8-fluoro-2-((2-fluorotetrahydro-1H-pyrrolizin-7a(5H)-yl)methoxy)-7-(5-methyl-1H-indazol-4-yl)pyrido[4,3-d]pyrimidine (racemic, trans)] | 114
Fc1c(-c2cccc(Cl)c2C2CC2)ncc2c(N3CC4CCC(C3)N4)nc(OCC34CCCN3C[C@H](F)C4)nc12 (mixture of isomers) [Example 342, 4-((1R,5S)-3,8-diazabicyclo[3.2.1]octan-3-yl)-7-(3-chloro-2-cyclopropylphenyl)-8-fluoro-2-((2-fluorotetrahydro-1H-pyrrolizin-7a(5H)-yl)methoxy)pyrido[4,3-d]pyrimidine (racemic, trans)] | 3.4
CCCc1cccc2cccc(-c3ncc4c(N5C[C@H]6CC[C@@H](C5)N6)nc(OCC56CCCN5CCC6)nc4c3F)c12 [Example 254, 4-((1R,5S)-3,8-diazabicyclo[3.2.1]octan-3-yl)-8-fluoro-2-((hexahydro-1H-pyrrolizin-7a-yl)methoxy)-7-(8-propylnaphthalen-1-yl)pyrido[4,3-d]pyrimidine] | 6.1
